US20140364454A1, “METAL-CHELATING COMPOUNDS HAVING AT LEAST ONE POLYAMINO CHAIN” (UNIVERSITE DE RENNES I, priority 2011, published 2014)

Tests used:
[1] = Continuous variation method, absorption of the Quilamine-Fe(III) complex at 580 nm; type: physicochemical; settings: physiological pH
Description: At physiological pH, the Quilamine forms a Quilamine-Fe(III) complex preferably having a ligand:metal stoichiometry of 2/1. The ligand:metal stoichiometry can for example be determined by the continuous variation method, using the characteristic transition in the absorption spectrum of the Quilamine-Fe(III) complex at 580 nm, for chelator and iron concentrations ranging from 0 to 500 micromoles per liter.
The interaction of Quilamine HQ1-44 with iron (Fe3+) was assessed by means of a characteristic transition at 580 nm, observed in the absorption spectrum of the complex of Quilamine HQ1-44 with Fe(III). The continuous variation method consist in measuring the quantity of complex formed between Quilamine and Fe(III) deduced from the value of absorption at 580 nm, in bringing about a variation of the ratio of the concentrations in Quilamine/Quilamine+Fe(III) for a total concentration of Quilamine+Fe(III) that is constant and equal to 100 micromoles per liter (Tris/HCl buffer 100 millimoles per liter, pH 7.4).

[2] = test system: mutant cell line CHO-MG without PTS; assay: Anti-proliferative effect on CHO-MG cells without PTS, counting of cell nuclei; type: cell-based, hamster; settings: for IC50: 72 h treatment; for Ratio IC50 (CHO-MG/CHO): selectivity of recognition by the PTS
From the text: The IC50 inhibitor concentration corresponding to the concentration in Quilamines enables the inhibition at 50% of the cell proliferation was deduced from the dose-effect curves of numeration of the nuclei of the living cells on the CHO and CHO-MG cell lines. These dose-effect curves are sometimes bi-phase curves as in the case of Quilamine HQ1-44 which has an anti-proliferative constituent (without concomitant release of LDH in supernatant) in the range of concentrations of 0.4 to 3 micromoles per liter and a second cytotoxic constituent accompanied by membrane toxicity expressed by the release of LDH for concentrations of over […]. The lower the value of IC50, the greater the efficiency of the anti-proliferative effect of the tested chelators.
Furthermore, the ratio of the IC50 inhibitor concentrations found for the CHO-MG and the CHO cell lines (Ratio IC50 (CHO-MG/CHO)) was computed for several Quilamines according to the invention. This ratio makes it possible to estimate the selectivity of recognition of the different chelators by the PTS: the higher the ratio, the more clearly is the chelator recognized by the PTS. When this ratio is close to 1, the tested chelator is not recognized or is little recognized by the PTS.

[3] = Potentiometry: stability constants and pFe3+ of the iron complex; type: physicochemical
Description: The complexation affinity of Quilamine with the metal ion in the organism reflects the chelating capacity or chelating power of Quilamine. This affinity can be assessed by measuring the value of pW corresponding to −log of the concentration in free metal ion W, i.e. non-complexated by the Quilamine for a ratio of respective concentrations of Quilamine (10 micromoles per liter) and metal ion (1 micromole per liter) equal to 10, at 25° C. and pH 7.4. The higher the value of pW, the greater the affinity of Quilamine with metal ion. The affinity of Quilamine with iron in its ferric form (Fe(III)) and its ferrous form (Fe(II)) is measured respectively by pFe^3+ and pFe^2+ at physiological pH (pH=7.4), at 25° C.
Potentiometry measurements were made in thermostated titration cells at 25±0.1° C., using a Metrohm 702 SM Titrino titrator connected to a Metrohm 6.0233.100. The ligand solution is prepared in a concentration of ˜1.5×10^−3 moles per liter, the solution of Fe^3+ is made from FeCl3 and titrated by complexation with a standard solution of EDTA (ethylenediaminetetracetic acid). The sample for the measurement contained approximately 0.03 millimoles per liter of ligand in a volume of 30 ml where the ionic strength is maintained at 0.1 mole per liter in using KNO3 as a support electrolyte. During the titrations, Fe^3+ is added to 0.45 or 0.9 equivalents of ligand. Each titration consists of 150-200 equilibrium points with pH varying from 2.0 to 11.5, and is repeated at least twice. The thermodynamic constants are computed with the software […] and the speciation diagram of the species is done by the Hyss program.

HepG2 cells [4] = assay: Cytotoxic effect on HepG2 cells, LDH release; type: cell-based, human; settings: for influence of exogenous iron on the cytotoxic effect: HepG2, presence of exogenous iron
Description: The implication of PTS in the cytostatic and cytotoxic action of Quilamines was analyzed in proliferating HepG2 hepatocyte tumor cells after activation of PTS or competitive inhibition of PTS by spermidine, a polyamine naturally present in the organism and most efficaciously captured by the PTS. The conditions of treatment by Quilamines are identical to those described in paragraph III-1.
Inhibiting ornithine decarboxylase (ODC), the key enzyme in the biosynthesis of polyamines, causes a depletion of intra-cell polyamines and an activation of PTS which enables the deficiency to be met. This activation of PTS is done by means of the ODC inhibitor, alpha-difluoromethyl ornithine (DFMO).
The competitive inhibition of PTS by spermidine is prompted by the co-treatment of the cells by the Quilamines in the presence of spermidine, in a concentration of 50 micromoles per liter.

CHO cells = assay: Cytotoxic effect on CHO cells, LDH release in supernatants; settings: hamster, 72 h
Description: The in vitro efficacy of different Quilamines was tested on a wild cell line (CHO) of hamster ovarian cells having PTS and a mutant cell line CHO-MG without PTS. The two cell types CHO and CHO-MG were treated, 24 hours after being seeded in 96-well microplates, by concentrations of different Quilamines ranging from 0.1 to 400 micromoles per liter. The cytostatic (anti-proliferative) effects and cytotoxic effects of Quilamine after 72 hours' treatment of the cells were assessed respectively by counting cell nuclei after DNA marking by the Hoechst 33342 fluorescent intercalant dye and by analysis of membrane damage detected by the dosing of the lactate dehydrogenase activity (LHD) in the supernatants.
A comparison was made of the cytostatic or anti-proliferative action and the cytotoxic action for 72 h of treatment by Quilamine HQ1-44 and 8-hydroxyquinoline and ICL670, on the CHO cell lines in the presence and without the presence of exogenous iron, in the form of Fe(III) citrate in a concentration of 20 micromoles per liter. The results obtained are shown in FIG. 4, FIG. 4A relating to the results on cell viability and FIG. 4B relating to the results on cell toxicity.

HepG2 cells [5] = assay: Anti-proliferative effect on HepG2 cells (nuclei count or SDH activity); type: cell-based, human; settings: HepG2, presence of exogenous iron

ligand/iron stoichiometry of the complex with Fe(III) [1]	Constant of stability (log K), species FeL ([3]; 25.0° C., I = 0.1 M in KNO3)	Constant of stability (log K), species FeL2 ([3]; 25.0° C., I = 0.1 M in KNO3)	Constant of stability (log K), species FeL2H ([3]; 25.0° C., I = 0.1 M in KNO3)	Constant of stability (log K), species FeL2H2 ([3]; 25.0° C., I = 0.1 M in KNO3)	Constant of stability (log K), species FeL2H3 ([3]; 25.0° C., I = 0.1 M in KNO3)	Constant of stability (log K), species FeL(OH) ([3]; 25.0° C., I = 0.1 M in KNO3)	Constant of stability (log K), species FeLH ([3]; 25.0° C., I = 0.1 M in KNO3)	Constant of stability (log K), species FeLH2 ([3]; 25.0° C., I = 0.1 M in KNO3)	pFe3+ ([3]; pH 7.4)	SMILES	IC50 [2]	IC50 ([2]; CHO-MG, 72 h)	Ratio IC50 (CHO-MG/CHO) [2]	influence of PTS activation by DFMO pre-treatment on cytotoxicity (HepG2 cells [4]; HepG2, concentrations greater than 50 micromoles per liter (50-100))	influence of exogenous iron on the cytotoxic effect (HepG2 cells [4])	influence of competitive inhibition of PTS by spermidine on the cytotoxic effects (HepG2 cells [4]; HepG2, spermidine 50 micromoles per liter, Quilamine 50 to 100 micromoles per liter)	chelator concentration giving cytotoxic effect with release of LDH (CHO cells)	influence of exogenous iron on the cytostatic effect (HepG2 cells [5])	concentration of the cytotoxic constituent associated with release of LDH (HepG2 cells [4]; HepG2, absence of exogenous iron)
2/1	25.92	7.8	10.2	8.0	8.2	7.37	6.65	2.88	27	NCCCCNCCCCNCc1ccc2cccc(O)c2n1 [HQ1-44, 2-[4-(4-aminobutyl)aminobutyl]aminomethylquinolin-8-ol]	344 µM	344 µM	249	amplification	partially inhibited	inhibition			
										O=C(O)c1ccc(-n2nc(-c3ccccc3O)nc2-c2ccccc2O)cc1 [ICL670, reference compound]		8 µM	1		inhibition		over 10 micromoles per liter	inhibition	over 10 micromoles per liter
